What all share (experiment): NCI-60 cell line screen, 48 h
Assay [1] deals with NCI/ADR-RES ovarian.
Assay [2] has as its system SK-MEL-2 melanoma.
Assay [3] relates to HCT-116 colon.
In assay [4] the test system is CAKI-1 renal.
For assay [5], the system named is RXF 393 renal.
Assay [6] concerns DU-145 prostate.
Assay [7] relates to OVCAR-5 ovarian.
Assay [8] relates to SK-MEL-28 melanoma.
The subject of assay [9] is CCRF-CEM leukemia.
Assay [10] relates to UO-31 renal.

SMILES strings stand for the structures.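 Protocol summary: plate cells (96-well), add compound at 5 concentrations, incubate 48 h, interpolate endpoints linearly. TGI: concentration producing complete growth inhibition.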

As for `CC(C)(C)OC(=O)N1Cc2cc(O)ccc2C[C@H]1C(=O)O`, the TGI in [1], in assay [2], in assay [3], in [4], in assay [5] and in assay [6] was more than 100 µM in each case. In addition, the TGI in [7], in assay [8] and in assay [9] was more than 100 µM each time.
In the case of `Cc1ccc(C(=O)C2=CN=C3C(=O)N(c4ccccc4)N(C)C3(C)C2=N)cc1` (configuration not stated), the TGI in [1], in assay [2], in assay [3], in assay [4], in assay [5] and in assay [10] was more than 100 µM in each case. Further, the TGI in [6], in assay [7] and in [9] was more than 100 µM throughout.
Consider `CNc1ncnc2c1nnn2C`, for which the TGI in [1], in assay [2], in assay [3], in [4], in assay [5] and in assay [10] was more than 100 µM in each case. Further, the TGI in assay [6], in assay [8] and in [9] was more than 100 µM in each case.
In the case of `Clc1ccc2nc(CC3CCCC3)[nH]c2c1`, the TGI in assay [1] was determined as 35.6 µM; in assay [2] it was 41.2 µM; in assay [3], 32 µM; in assay [4], 27.6 µM; in assay [5] it was 32.1 µM; in [6], 54.6 µM. In addition, the TGI was 67.5 µM in [7], 63.9 µM in assay [8] and more than 100 µM in [9].
With `CN1CCN(/C(N)=C(\C#N)C(=O)Nc2ccccc2)CC1`, the TGI in assay [1], in [2], in [3], in assay [4], in assay [10] and in assay [6] was more than 100 µM throughout. Also, the TGI in [7], in [8] and in [9] was more than 100 µM throughout.
As to `CO[C@H]1C[C@H](n2cc(C)c(=O)[nH]c2=O)O[C@@H]1CO`, the TGI in assay [1], in assay [3], in assay [4], in [5], in assay [10] and in [6] was more than 100 µM each time. Also, the TGI in [7], in [8] and in [9] was more than 100 µM throughout.
On to `Cc1oncc1NC1=CC(=O)C(=O)c2ccccc21`, for which the TGI in assay [1] is more than 100 µM; in assay [3] it was 10.6 µM; in [4], 22.6 µM; in [5] it was 27.5 µM; in assay [10], 27.9 µM; in assay [6], 31.7 µM. The TGI in [7] is 26.5 µM; in [8] it was 29.2 µM; in [9], 15 µM.
For the compound `CCCCNC(=S)c1ccc(OC(=O)Nc2ccc(Cl)cc2)cc1`, the TGI in assay [1], in [2], in assay [3], in assay [4], in [10] and in assay [6] was more than 100 µM throughout. The TGI in assay [7], in [8] and in assay [9] was more than 100 µM each time.
For `COC(=O)c1c(O)ccc2c1c1c(n2Cc2ccccc2OC)C(=O)c2ccccc2C1`, the TGI was more than 100 µM in assay [1]; more than 100 µM in assay [2]; more than 100 µM in [3]; more than 100 µM in assay [4]; 88.1 µM in assay [5]; more than 100 µM in assay [10]. Also, the TGI is more than 100 µM in [6], more than 100 µM in assay [8] and 81.2 µM in assay [9].
For the compound `O=C(O)CN(CC(=O)O)Cc1ccn(-c2cccc(-n3ccc(CN(CC(=O)O)CC(=O)O)n3)n2)n1`, the TGI in assay [1], in [2], in assay [3], in [4], in [5] and in [10] was more than 100 µM in each case. The TGI in assay [6], in [7] and in assay [8] was more than 100 µM in each case.
Turning to `COc1cc([C@@H]2c3cc4c(cc3[C@@H](N=Cc3ccc(C(=O)O[C@@H](C(=O)O[C@H]5C[C@@]6(O)[C@@H](OC(=O)c7ccccc7)[C@@H]7[C@]8(OC(C)=O)CO[C@@H]8C[C@H](O)[C@@]7(C)C(=O)[C@H](OC(C)=O)C(=C5C)C6(C)C)[C@@H](NC(=O)c5ccccc5)c5ccccc5)cc3)[C@H]3COC(=O)[C@H]23)OCO4)cc(OC)c1O`, the TGI in assay [1] was more than 50 µM; in [3] it was more than 50 µM; in assay [4], more than 50 µM; in [5], more than 31.1 µM; in assay [6] it was more than 42.5 µM; in [8] it was more than 50 µM.
For the compound `COc1cccc2c1-c1c(OC)cccc1SS2`, the TGI is more than 100 µM in assay [1]; 46.4 µM in assay [2]; 40.4 µM in [3]; more than 100 µM in [4]; 63.6 µM in assay [5]; more than 100 µM in assay [10]. The TGI was more than 100 µM in assay [6], 40.9 µM in [7] and 79.4 µM in [8].
Regarding `COc1nc2ccc(CNc3ccc(C(=O)O)cc3)cc2nc1OC`, the TGI in assay [1], in assay [2], in [3], in assay [4], in [5] and in assay [6] was more than 10 µM in each case. The TGI in assay [7], in assay [8] and in assay [9] was more than 10 µM throughout.
With `O=C(CCc1ccc(O)c(O)c1)NCCc1ccc(O)c(O)c1`, the TGI in assay [1], in [2], in assay [3], in assay [5], in assay [10] and in [6] was more than 100 µM in each case. The TGI is more than 100 µM in assay [7], more than 100 µM in assay [8] and 78.3 µM in assay [9].
As to `CCC/C(Cl)=N\OC(=O)Nc1ccc(F)c([N+](=O)[O-])c1`, the TGI was 36.6 µM in assay [1]; 27.3 µM in [2]; more than 100 µM in [3]; 15.5 µM in assay [4]; 26.6 µM in assay [10]; 28.6 µM in assay [6]. Also, the TGI in [7] is 44.4 µM; in assay [8] it was 34.2 µM; in assay [9], more than 100 µM.

Values taken from PubChem BioAssay (NCI).
